Results on ten compounds are retold here after US7947684B2, “1-aroyl-piperidinyl benzamidines” (Aventis Pharmaceuticals Inc., priority 2000, dated 2011).

Counter-ions that a name gives are not always drawn.

For one assay, the target named is human lung tryptase or recombinant human β tryptase. As to the kind of experiment: Tryptase inhibition activity, S2366 substrate. Conditions: room temperature, 0.5 mM substrate. The format is biochemical. As for the experimental part: (§1) All enzyme assays are carried out at room temperature in 96-well microtiter plates using a final enzyme concentration of 1 nM. The concentrations of factor Xa and thrombin are determined by active site titration and the concentrations of all other enzymes are based on the protein concentration supplied by the manufacturer. Compounds according to the invention are dissolved in DMSO, diluted with their respective buffers and assayed at a maximal final DMSO concentration of 1.25%. Compound dilutions are added to wells containing buffer and enzyme and pre-equilibrated for between 5 and 30 minutes. The enzyme reactions are initiated by the addition of substrate and the color developed from the hydrolysis of the peptide-p-nitroanilide substrates is monitored continuously for 5 minutes at 405 nm on a Vmax microplate reader (Molecular Devices). Under these conditions, less than 10% of the substrate is utilized in all assays. […] The apparent Ki values are then determined according to the Cheng-Prusoff equation (IC50=Ki[1+[S]/Km]) assuming competitive inhibition kinetics.
Tryptase inhibition activity is confirmed using either isolated human lung tryptase or recombinant human β tryptase expressed in yeast cells. Essentially equivalent results are obtained using isolated native enzyme or the expressed enzyme. […]
In the case of `N=C(N)c1cccc(C2=CCN(C(=O)c3cncc(C#Cc4ccccc4)c3)CC2)c1` [Example 47, 3-[1-(5-Phenylethynyl-pyridine-3-carbonyl)-1,2,3,6-tetrahydropyridin-4-yl]-benzamidine hydrochloride], the Ki was 183 nM.

`N=C(N)c1cccc(N2CCN(C(=O)c3cncc(CCc4ccccc4)c3)CC2)c1` [Example 49, 3-[4-(5-Phenylethyl-pyridine-3-carbonyl)-piperazin-1-yl]-benzamidine di-hydrochloride]: the Ki was found to be 1070 nM.

The target of a further assay is Factor Xa (Homo sapiens, UniProt P00742). Description: Enzyme assay, purified factor Xa, peptide-p-nitroanilide substrate. The format is biochemical. Conditions: apparent Ki from IC50 by Cheng-Prusoff, room temperature, 1 nM enzyme. As for the experimental part: as §1
Chain of Factor Xa (P00742 235-488 limits assumed): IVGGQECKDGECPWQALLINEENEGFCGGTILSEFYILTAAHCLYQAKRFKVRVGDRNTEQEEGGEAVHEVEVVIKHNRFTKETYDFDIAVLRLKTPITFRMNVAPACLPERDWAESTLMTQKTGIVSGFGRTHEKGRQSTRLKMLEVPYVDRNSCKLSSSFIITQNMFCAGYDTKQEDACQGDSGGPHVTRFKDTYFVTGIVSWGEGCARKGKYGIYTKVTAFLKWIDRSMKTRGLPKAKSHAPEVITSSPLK
Chain of Factor Xa (P00742 41-179 partner limits assumed): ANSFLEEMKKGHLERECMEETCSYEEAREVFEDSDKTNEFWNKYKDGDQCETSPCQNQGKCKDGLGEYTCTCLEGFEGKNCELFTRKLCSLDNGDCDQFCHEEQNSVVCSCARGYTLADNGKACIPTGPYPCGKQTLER
Regarding `N=C(N)c1cccc(C2=CCN(C(=O)c3ccc(-c4cccnc4)cc3)CC2)c1` [Example 8, 3-[1-(4-Pyridin-3-yl-benzoyl)-1,2,3,6-tetrahydropyridin-4-yl]benzamidine ditrifluoroacetate], the Ki was determined as 5 nM. With `N=C(N)c1cccc(C2=CCN(C(=O)c3ccc(-c4ccc(Br)o4)cc3)CC2)c1` [Example 10, 3-{1-[4-(5-Bromofuran-2-yl)-benzoyl]-1,2,3,6-tetrahydropyridin-4-yl}benzamidine trifluoroacetate], the Ki is 34 nM. Same read-out and setting: the figure for `N=C(N)c1cccc(C2=CCN(C(=O)c3ccc(-c4ccc(Cl)s4)cc3)CC2)c1` [Example 11, 3-{1-[4-(5-Chlorothiophen-2-yl)-benzoyl]-1,2,3,6-tetrahydropyridin-4-yl}benzamidine trifluoroacetate] is 688 nM; for `N=C(N)c1cccc(C2=CCN(C(=O)c3ccc(-c4ncccn4)cc3)CC2)c1` [Example 16, 3-[1-(4-Pyrimidin-2-ylbenzoyl)-1,2,3,6-tetrahydropyridin-4-yl]-benzamidine ditrifluoroacetate] it is 63 nM.

`N=C(N)c1cccc(C2CCN(C(=O)c3ccc(-c4ccccn4)cc3)CC2)c1` [Example 25, 3-[1-(4-Pyridin-2-ylbenzoyl)-piperidin-4-yl]benzamidine ditrifluoroacetate]: the Ki turned out to be 9 nM. For `NC(=O)c1cccc(-c2ccc(C(=O)N3CCC(c4ccc5ccnc(N)c5c4)CC3)cc2)c1` [Example 35, 4′-[4-(1-Aminoisoquinolin-7-yl)piperidine-1-carbonyl]biphenyl-3-carboxylic acid amide trifluoroacetate], the Ki was 570 nM. For the compound `Nc1nccc2ccc(C3=CCN(C(=O)c4ccc(-c5ccc(=O)[nH]c5)cc4)CC3)cc12` [Example 39, 5-{4-[4-(1-Aminoisoquinolin-7-yl)-3,6-dihydro-2H-pyridine-1-carbonyl]phenyl}-1H-pyridin-2-one trifluoroacetate], the Ki was found to be 140 nM. Take `Nc1nccc2[nH]c(C3CCN(C(=O)c4ccc(-c5ccc(=O)[nH]c5)cc4)CC3)cc12` [Example 44, 5-{4-[4-(4-Amino-1H-pyrrolo[3,2-c]pyridin-2-yl)piperidine-1-carbonyl]phenyl}-1H-pyridin-2-one trifluoroacetate]: the Ki stood at 990 nM.
